Test results from ChEMBL document CHEMBL3046912, “Effectiveness of 1,3-dichloropropene as an alternative to methyl bromide in rotations of tomato (Solanum lycopersicum) and cucumber (Cucumis sativus) in China” (2012).

Legend:
Assay type in all cases: functional
Solanum lycopersicum [1] = assay: Increase in plant height of Solanum lycopersicum (tomato) exposed to 90 L/ha compound fumigation treatment measured 30 days after compound treatment (reference value: 28.4 cm)
Solanum lycopersicum [2] = assay: Increase in plant height of Solanum lycopersicum (tomato) exposed to 120 L/ha compound fumigation treatment measured 30 days after compound treatment (reference value: 28.4 cm)
Solanum lycopersicum [3] = assay: Increase in plant height of Solanum lycopersicum (tomato) exposed to 180 L/ha compound fumigation treatment measured 30 days after compound treatment (reference value: 28.4 cm)
Solanum lycopersicum [4] = assay: Increase in plant height of Solanum lycopersicum (tomato) exposed to 180 L/ha compound fumigation treatment measured 50 days after compound treatment (reference value: 86.2 cm)
Solanum lycopersicum [5] = assay: Increase in plant height of Solanum lycopersicum (tomato) exposed to 120 L/ha compound fumigation treatment measured 50 days after compound treatment (reference value: 86.2 cm)
Solanum lycopersicum [6] = assay: Increase in plant height of Solanum lycopersicum (tomato) exposed to 90 L/ha compound fumigation treatment measured 50 days after compound treatment (reference value: 86.2 cm)
Cucumis sativus = assay: Increase in plant height of Cucumis sativus (cucumber) exposed to 180 L/ha compound fumigation treatment measured 30 days after compound treatment (reference value: 85.6 cm)
Arenaria serpyllifolia [7] = assay: Herbicidal activity against Arenaria serpyllifolia in cucumber plants fields exposed to 90 L/ha compound fumigation treatment assessed as hand weeding time per plot (reference value: 258.3 hr/ha)
Arenaria serpyllifolia [8] = assay: Herbicidal activity against Arenaria serpyllifolia in cucumber plants fields exposed to 120 L/ha compound fumigation treatment assessed as hand weeding time per plot (reference value: 258.3 hr/ha)
Capsella bursa-pastoris [9] = assay: Herbicidal activity against Capsella bursa-pastoris in cucumber plants fields exposed to 180 L/ha compound fumigation treatment assessed as hand weeding time per plot (reference value: 258.3 hr/ha)
Meloidogyne incognita [10] = assay: Nematicidal activity against Meloidogyne incognita (root-knot nematode) in cucumber growing fields exposed to 90 L/ha compound fumigation treatment assessed as root galling index measured 20 days after compound treatment (reference value: 8.72 root galling index)
Meloidogyne incognita [11] = assay: Nematicidal activity against Meloidogyne incognita (root-knot nematode) in cucumber growing fields exposed to 180 L/ha compound fumigation treatment assessed as root galling index measured 20 days after compound treatment (reference value: 8.72 root galling index)
Solanum lycopersicum [12] = assay: Increase in crop yield in Cucumis sativus (cucumber) plants exposed to 120 L/ha compound fumigation treatment assessed as marketable yield fruit yield (reference value: 65.3 ton/ha)
Solanum lycopersicum [13] = assay: Increase in crop yield in Cucumis sativus (cucumber) plants exposed to 90 L/ha compound fumigation treatment assessed as marketable yield fruit yield (reference value: 65.3 ton/ha)
Solanum lycopersicum [14] = assay: Increase in crop yield in Solanum lycopersicum (tomato) plants exposed to 120 L/ha compound fumigation treatment assessed as marketable yield fruit yield (reference value: 51.3 ton/ha)
Arenaria serpyllifolia [15] = assay: Herbicidal activity against Arenaria serpyllifolia in tomato plants fields exposed to 90 L/ha compound fumigation treatment assessed as hand weeding time per plot (reference value: 243.3 hr/ha)
Capsella bursa-pastoris [16] = assay: Herbicidal activity against Capsella bursa-pastoris in tomato plants fields exposed to 90 L/ha compound fumigation treatment assessed as hand weeding time per plot (reference value: 243.3 hr/ha)
Arenaria serpyllifolia [17] = assay: Herbicidal activity against Arenaria serpyllifolia in tomato plants fields exposed to 120 L/ha compound fumigation treatment assessed as hand weeding time per plot (reference value: 243.3 hr/ha)
Capsella bursa-pastoris [18] = assay: Herbicidal activity against Capsella bursa-pastoris in tomato plants fields exposed to 120 L/ha compound fumigation treatment assessed as hand weeding time per plot (reference value: 243.3 hr/ha)
Arenaria serpyllifolia [19] = assay: Herbicidal activity against Arenaria serpyllifolia in tomato plants fields exposed to 180 L/ha compound fumigation treatment assessed as hand weeding time per plot (reference value: 243.3 hr/ha)
Digitaria sanguinalis [20] = assay: Herbicidal activity against Digitaria sanguinalis (hairy crabgrass) in tomato plants fields exposed to 180 L/ha compound fumigation treatment assessed as hand weeding time per plot (reference value: 243.3 hr/ha)
Arenaria serpyllifolia [21] = assay: Herbicidal activity against Arenaria serpyllifolia in tomato plants fields exposed to 90 L/ha compound fumigation treatment assessed as hand weeding time per plot relative to untreated control
Digitaria sanguinalis [22] = assay: Herbicidal activity against Digitaria sanguinalis (hairy crabgrass) in tomato plants fields exposed to 90 L/ha compound fumigation treatment assessed as hand weeding time per plot relative to untreated control
Capsella bursa-pastoris [23] = assay: Herbicidal activity against Capsella bursa-pastoris in tomato plants fields exposed to 90 L/ha compound fumigation treatment assessed as hand weeding time per plot relative to untreated control
Digitaria sanguinalis [24] = assay: Herbicidal activity against Digitaria sanguinalis (hairy crabgrass) in tomato plants fields exposed to 120 L/ha compound fumigation treatment assessed as hand weeding time per plot relative to untreated control
Capsella bursa-pastoris [25] = assay: Herbicidal activity against Capsella bursa-pastoris in tomato plants fields exposed to 180 L/ha compound fumigation treatment assessed as hand weeding time per plot relative to untreated control
Solanum lycopersicum [26] = assay: Increase in crop yield in Solanum lycopersicum (tomato) plants exposed to 120 L/ha compound fumigation treatment assessed as medium fruit yield (reference value: 32.3 ton/ha)
Solanum lycopersicum [27] = assay: Increase in crop yield in Solanum lycopersicum (tomato) plants exposed to 90 L/ha compound fumigation treatment assessed as medium fruit yield (reference value: 32.3 ton/ha)
Solanum lycopersicum [28] = assay: Increase in crop yield in Solanum lycopersicum (tomato) plants exposed to 180 L/ha compound fumigation treatment assessed as medium fruit yield (reference value: 32.3 ton/ha)
Solanum lycopersicum [29] = assay: Increase in crop yield in Cucumis sativus (cucumber) plants exposed to 90 L/ha compound fumigation treatment assessed as large fruit yield (reference value: 19.5 ton/ha)
Solanum lycopersicum [30] = assay: Increase in crop yield in Cucumis sativus (cucumber) plants exposed to 120 L/ha compound fumigation treatment assessed as large fruit yield (reference value: 19.5 ton/ha)
Arenaria serpyllifolia [31] = assay: Herbicidal activity against Arenaria serpyllifolia in cucumber plants fields exposed to 180 L/ha compound fumigation treatment assessed as hand weeding time per plot relative to untreated control
Digitaria sanguinalis [32] = assay: Herbicidal activity against Digitaria sanguinalis (hairy crabgrass) in cucumber plants fields exposed to 180 L/ha compound fumigation treatment assessed as hand weeding time per plot relative to untreated control
Solanum lycopersicum [33] = assay: Increase in crop yield in Solanum lycopersicum (tomato) plants exposed to 120 L/ha compound fumigation treatment assessed as extra-large fruit yield (reference value: 3.8 ton/ha)
Solanum lycopersicum [34] = assay: Increase in crop yield in Solanum lycopersicum (tomato) plants exposed to 90 L/ha compound fumigation treatment assessed as extra-large fruit yield (reference value: 3.8 ton/ha)
Solanum lycopersicum [35] = assay: Increase in crop yield in Solanum lycopersicum (tomato) plants exposed to 180 L/ha compound fumigation treatment assessed as extra-large fruit yield (reference value: 3.8 ton/ha)
Arenaria serpyllifolia [36] = assay: Herbicidal activity against Arenaria serpyllifolia in cucumber plants fields exposed to 90 L/ha compound fumigation treatment assessed as hand weeding time per plot relative to untreated control

`Cl/C=C/CCl` [1,3-DICHLOROPROPENE] was tested, and the Activity (Solanum lycopersicum [1]) was 32.4 cm, the Activity (Solanum lycopersicum [2]) was 37.9 cm and the Activity (Solanum lycopersicum [3]) was 45.4 cm. It also gave an Activity (Solanum lycopersicum [4]) of 117.8 cm, an Activity (Solanum lycopersicum [5]) of 108.6 cm and an Activity (Solanum lycopersicum [6]) of 98.3 cm. It also gave an Activity (Cucumis sativus) of 105.6 cm, a Time (Arenaria serpyllifolia [7]) of 90.5 hr/ha and a Time (Arenaria serpyllifolia [8]) of 74.4 hr/ha. It also gave a Time (Capsella bursa-pastoris [9]) of 62.3 hr/ha, a Root_galling_index (Meloidogyne incognita [10]) of 4.28 and a Root_galling_index (Meloidogyne incognita [11]) of 2.02. It also gave a Crop_yield (Solanum lycopersicum [12]) of 89.1 tons/ha, a Crop_yield (Solanum lycopersicum [13]) of 84 tons/ha and a Crop_yield (Solanum lycopersicum [14]) of 68.1 tons/ha. The Time (Arenaria serpyllifolia [15]) was 85.6 hr/ha, the Time (Capsella bursa-pastoris [16]) was 85.6 hr/ha and the Time (Arenaria serpyllifolia [17]) was 66.4 hr/ha. The Time (Capsella bursa-pastoris [18]) was 66.4 hr/ha, the Time (Arenaria serpyllifolia [19]) was 55.6 hr/ha and the Time (Digitaria sanguinalis [20]) was 55.6 hr/ha. For the same compound, the Activity (Arenaria serpyllifolia [21]) was 45%, the Activity (Digitaria sanguinalis [22]) was 45% and the Activity (Capsella bursa-pastoris [23]) was 45%. For the same compound, the Activity (Digitaria sanguinalis [24]) was 45%, the Activity (Capsella bursa-pastoris [25]) was 45% and the Crop_yield (Solanum lycopersicum [26]) was 42.5 tons/ha. For the same compound, the Crop_yield (Solanum lycopersicum [27]) was 38.7 tons/ha, the Crop_yield (Solanum lycopersicum [28]) was 45.3 tons/ha and the Crop_yield (Solanum lycopersicum [29]) was 24.8 tons/ha. It also gave a Crop_yield (Solanum lycopersicum [30]) of 27.9 tons/ha, an Activity (Arenaria serpyllifolia [31]) of 45% and an Activity (Digitaria sanguinalis [32]) of 45%. It also gave a Crop_yield (Solanum lycopersicum [33]) of 6.4 tons/ha, a Crop_yield (Solanum lycopersicum [34]) of 4.8 tons/ha and a Crop_yield (Solanum lycopersicum [35]) of 8.4 tons/ha. The Activity (Arenaria serpyllifolia [36]) was 45%.
